Patent US6316411A, “Protection against ischemia and reperfusion injury” (University of Kentucky Research Foundation, priority 2000, dated 2001)

What was measured:
isolated rat hearts = experiment: Isolated perfused rat heart (Langendorff), 20 min global ischemia and 120 min reperfusion after 24 h pretreatment; assay type: in vivo; conditions: FIG. 7, pretreated 24 h prior to ischemia, compound-D 2.0 mg/kg and/or naltrexone 3 mg/kg, 20 min ischemia, control about 27%
Method: Compound-D SEQ ID NO:1, at a dose of 2 mg/kg and solubilized as described above, was administered by tail vein injection into rats weighing between about 350-400 g (number of animals (n)=6). Control rats (n=6) were injected in the same manner with an equal volume of 0.9% NaCI. After 24 h, the hearts from both treated and control animals were excised and perfused in a modified Langendorff perfusion apparatus at 37° C. using oxygenated Krebs-Henseleit buffer as the perfusate, as known to one skilled in the art. Coronary perfusion pressure was maintained at 70 mm Hg by regulating coronary flow. All hearts were paced at […] (300 beats per minute, bpm) except during ischemia. A saline-filled balloon was inserted in the left ventricle to measure developed pressure (DP) and end-diastolic pressure (EDP) in mm Hg. After 15 min equilibration, both groups were subjected to 20 min zero-flow global ischemia, and then were reperfused for 120 min.
Left ventricles were isolated and divided into three segments along their short axis, stained with triphenyltetrazolium chloride, and stored in formalin. Infarct size was measured on digitized images and expressed as a per centage of myocardium. Data were expressed as mean plus or minus standard error of the mean (±SEM) and were analyze using a […] Student's t-Test. Confidence limits were established at 95%. […]

mouse vas deferens = experiment: Mouse vas deferens (m.v.d.) contractility assay; conditions: FIG. 8; 6000 nM glibenclamide with 1000 nM compound-D
Method: Glibenclamide, a KATP channel blocker, blocked the inhibition of contraction of mouse vas deferens induced by compound-D SEQ ID NO:1. With reference to FIG. 8, the effect of administration of 1000 nM compound-D SEQ ID NO:1 alone (open bar) versus 1000 nM compound-D SEQ ID NO:1 with 6000 nM glibenclamide (hatched bar) on contractility of mouse vas deferens (m.v.d.) (n=6) is shown. […] (n=2).

Compound	infarct size (isolated rat hearts)	effect of glibenclamide on compound-D suppressed m.v.d. contractions (mouse vas deferens)
O=C1CC[C@@]2(O)[C@H]3Cc4ccc(O)c5c4[C@@]2(CCN3CC2CC2)[C@H]1O5 [naltrexone]	about 14.5%	–
COc1ccc(Cl)cc1C(=O)NCCc1ccc(S(=O)(=O)NC(=O)NC2CCCCC2)cc1 [Glibenclamide]	–	restored m.v.d. contractions
